# Measured values taken from US12036224B2, “Formulations, methods, kits, and dosage forms for treating atopic dermatitis and for improved stability of an active pharmaceutical ingredient” (Libertas Bio, Inc., priority 2017, dated 2024).
# Entries after “also recorded” stand apart in the source; their conditions may differ.
# Assays:
# [1] = system: patients with solid tumors and hematologic malignancies; assay: Phase 1/2 trial in solid tumors and hematologic malignancies: safety and tolerability; assay type: in vivo, human
# Method: (§1) Methods: Phase 1/2 clinical trial in patients with solid tumors and hematologic malignancies evaluates escalating oral doses of the formulation disclosed herein at 10, 20, 30, 40, 50, 75 and 100 mg BID and 80 and 120 mg QD mg (NCT02440685). Phase 1 allows patients with solid tumors or hematologic malignancies; Phase 2 allows only patients with diffuse large B-Cell lymphoma (DLBCL), follicular lymphoma (FL) or mantle cell lymphoma (MCL). Endpoints include safety, tolerability, pharmacokinetics, serum markers of inflammation, and response using RECIST or Lugano Classification System, […]
# [2] = system: subjects with moderate-to severe atopic dermatitis; assay: Phase 1b study in atopic dermatitis: efficacy (EASI, IGA, pruritus NRS); assay type: in vivo, human; conditions: for EASI50 / EASI75: once daily, after 4 weeks; for average decrease in EASI / average decrease in Pruritis (Itch) Numeric Rating Scale (NRS): week 4
# Method: The study conducted was a randomized, double-blind, placebo-controlled, multicenter, sequential dose escalation study in subjects with moderate-to severe atopic dermatitis. The study included a screening period (up to 30 days) and a treatment period for 4 weeks with a 14 day follow up period that concluded with an end-of-study visit. Three sequential cohorts of 20, 40 and 80 mg QD were evaluated. At each dose level a total of 12 subjects were enrolled with 9 subjects receiving Compound 1, and 3 subjects receiving matching placebos.
# Upon signing the informed consent, the each subject underwent screening assessments from Day −30 to Day −1 prior to study drug administration. On Day 1 (baseline), eligible subjects were randomized, subjected to the Day 1/baseline assessments and received Compound 1 at 20, 40 or 80 mg or placebo, dependent on cohort and randomization schedule. At this visit, PK/PD samples were collected at predose and up to 8 hours (or up to 12 hours at selected sites). Subjects were monitored in clinic for 2 hours following the first study drug administration. Subjects returned to the clinic on Day 2 for PK and PD samples (24 hours post dose).
# Pre-dose PK and PD samples were collected on Days 8 and 29 (last day of treatment). On Day 15, PK/PD samples were also collected at pre-dose and up to 8 hours post-dose and subjects returned on Day 16 for PK and PD samples (24 hours post dose). Subjects came in for additional safety assessments on Days 8, 22 and 29, as well as at the end of the follow up period (Day 43). Disease assessments were conducted on Days 1, Day 15 and Day 29.
# Compound 1 was administered orally at doses of 20, 40 and 80 mg qd. Compound 1 was made available in 5-mg, 20-mg, and 50-mg strength tablets.
# Assessment of efficacy variables: Preliminary efficacy was assessed by changes in the following assessments between Day 1 (baseline) and Days 15 and 29: IGA, EASI, 5-D Pruritus scale, Pruritus Numeric Rating Scale, % BSA involvement of AD, and skin microbiome analysis
# The IGA is an assessment scale used in clinical studies to determine severity of AD and clinical response to treatment based on a 5-point scale ranging from 0 (clear) to 4 (severe) (18). The IGA score was assessed at screening, day 1/baseline (pre-dose), and days 15, 29, 43 or early termination.
# The Pruritus NRS is a single-question assessment tool that is used to assess the patient's worst itch as a result of AD in the […]. Subjects complete the patient recorded outcome once daily. Patient compliance on the pruritus NRS is followed at each clinic visit. Subjects were instructed on daily reporting at the Baseline visit and are queried for compliance at every clinic visit. Subjects completed the rating scale daily through the last study visit using the scale provided below.
# The Eczema Area and Severity Index (EASI) is a validated measure used in clinical practice and clinical trials to assess the severity and extent of AD. Four AD disease characteristics are assessed for severity by the investigator or designee on a scale of “0” (None) through “3” (severe). In addition, the area of AD involvement is assessed as a percentage by body area of head, trunk, upper and lower extremities and converted to a score of 0 to 6. Subjects were subjected to this assessment at the following visits: screening, day 1/baseline (pre-dose), and days 15, 29, 43 or early termination.
# Methods: Patients were randomized 1:3 placebo or Compound 1 at 20, 40 or 80 mg once daily for 4 weeks (n=36). Inclusion criteria were Eczema Area and Severity Index (EASI) ≥16, body surface area (BSA) involvement ≥10% and an Investigator's Global Assessment (IGA) of ≥3 at baseline visit. Study objectives included safety/tolerability, efficacy and pharmacokinetic measurements. No concomitant administration of topical corticosteroids or other immunosuppressants was permitted during or prior to study.
# [3] = Phase 1/2 trial in solid tumors and hematologic malignancies: pharmacokinetics; assay type: in vivo, human
# Method: as §1
# JAK = assay: Pre-clinical kinase inhibition, JAK; assay type: biochemical; conditions: pre-clinical studies
# Text: (§2) A formulation of the disclosure comprising 2-(1-(4-((4-(4-hydroxypiperidin-1-yl)phenyl)amino)-5-oxo-5,6-dihydropyrimido[4,5-d]pyridazin-2-yl)piperidin-4-yl)acetonitrile comprises a potent inhibitor of Spleen Tyrosine Kinase (SYK) and Janus Kinases (JAK).
# SYK = SYK (Homo sapiens, UniProt P43405); assay: Pre-clinical kinase inhibition, SYK; assay type: biochemical; conditions: pre-clinical studies
# Text: as §2
# [4] = system: patients with solid tumors and hematologic malignancies; assay: Phase 1/2 trial in solid tumors and hematologic malignancies: response and serum markers; assay type: in vivo, human
# Method: as §1
# [5] = system: IL-17-SYK mediated CCL20 release, human keratinocytes; assay: Inhibition of IL17 mediated CCL20 release in keratinocytes; assay type: cell-based; conditions: single donor, n=3
# Method: In FIG. 12, each bar represents mean and SEM for 3 replicates (n=3) of a single donor. FIG. 13 is a graph showing average weekly change in pruritus (NRS) for a placebo, and Compound 1 in the doses of 20 mg, 40 mg and 80 mg.
# [6] = 10 mg-100 mg BID and 80-120 mg QD
# [7] = Day 1 to Day 29, 20, 40 and 80 mg
compound,measurement,setting,value
"N#CCC1CCN(c2nc(Nc3ccc(N4CCC(O)CC4)cc3)c3c(=O)[nH]ncc3n2)CC1 [Compound 1, 2-(1-(4-((4-(4-hydroxypiperidin-1-yl)phenyl)amino)-5-oxo-5,6-dihydropyrimido[4,5-d]pyridazin-2-yl)piperidin-4-yl)acetonitrile]",dose limiting adverse events,[1]; [6],No dose limiting adverse events
same,tolerability,[1]; [6],safe and well tolerated
same,MTD,[1]; dose escalation continues,has not been reached
same,grade of most drug-related adverse events,"[1]; e.g. headache, fatigue",Gr 1/2
same,EASI50,[2]; 20 mg cohort,29%
same,EASI75,[2]; 20 mg cohort,0%
same,average decrease in EASI,[2]; 20 mg cohort,21%
same,average decrease in Pruritis (Itch) Numeric Rating Scale (NRS),[2]; 20 mg cohort,15%
same,EASI50,[2]; 40 mg cohort,100%
same,EASI75,[2]; 40 mg cohort,63%
same,average decrease in EASI,[2]; 40 mg cohort,79%
same,average decrease in Pruritis (Itch) Numeric Rating Scale (NRS),[2]; 40 mg cohort,47%
same,reduction in itch,"[2]; 80 mg cohort, Day 2",~45%
same,EASI50,[2]; 80 mg cohort,88%
same,EASI75,[2]; 80 mg cohort,50%
same,average decrease in EASI,[2]; 80 mg cohort,70%
same,average decrease in Pruritis (Itch) Numeric Rating Scale (NRS),[2]; 80 mg cohort,71%
same,overall efficacy in moderate to severe AD (in words),[2]; 4 weeks,clear efficacy; also recorded: robust activity in EASI after 4 weeks
same,change in pruritus / patient reported itch (in words),"[2]; 20, 40 and 80 mg once daily",early decrease in pruritis; also recorded: significant reduction in patient reported itch was observed as early as 2nd day of treatment; also recorded: early improvements in pruritus
same,"IGA assessments, subjects reaching 0-1",[2]; 40 and 80 mg cohorts,up to 38%
same,subjects reached EASI90,[2]; [7],3 subjects
same,subjects with 100% clearance,[2]; [7],2 subjects
same,systemic exposure (in words),[3]; 80 mg QD,High systemic exposure
same,half-life,"[3]; human, in vivo, steady-state, 40 mg BID, oral",1080 min
same,AUC(0-t),"[3]; human, in vivo, steady-state, 40 mg BID, oral, read-out: AUC (0-12 h)",6.3 µM·h
same,Cmax,"[3]; steady-state, 40 mg BID, oral",700 nM
same,IC50 against JAK,JAK,low nM
same,IC50 against SYK,SYK,low nM
same,reduction in target lesions,"[4]; 3 months, a FL patient (Lugano, 6 prior lines)",About 50%
same,response in a peripheral T-Cell lymphoma patient,"[4]; after 2 months (Lugano, 2 prior lines)",stable disease and reduction of pruritus
same,"CRP, IL-18, MIP1β, VCAM-1, TNFR2 (serum markers of inflammation)",[4]; all doses,Robust reduction
same,efficacy in NHL patients (in words),[4]; in vivo,Encouraging preliminary evidence of efficacy
same,inhibition of IL-17-SYK mediated CCL20 release,[5],"inhibits IL-17-SYK mediated CCL20 release, from human keratinocytes, at levels similar to IL17 neutralizing antibodies"
